Assay results reported in US10738056B2 (Aduro BioTech, Inc., priority 2017, dated 2020).

Columns and labels:
[1] = molecular target: Human cGAS amino acids 155-522 (Homo sapiens (Human), UniProt Q8N884); test: cGAS biochemical activity assay (ATP remaining, Kinase-Glo Max luminescence); conditions: human cGAS 155-522, ATP remaining (Kinase-Glo Max); read-out: cGAS IC50
[2] = tested on: MCP-1/CCL2 secretion by Trex1-KO BMM; test: Inhibition of MCP-1/CCL2 secretion by Trex1-KO bone marrow-derived macrophages; type: cell-based, mice; set-up: key to BMM IC50 M (MCP-1): A: an IC50 value less than 5 μM; B: an IC50 value between 5 and 20 μM; where an IC50 value could not be calculated from the data; conditions: MCP-1 secretion
Description: A cellular assay can be used to asses the compounds of the invention for their ability to inhibit cytokine production. Bone marrow macrophages harvested from mice can be used to determine response as a function of compound concentration.
The inhibition of secreted cytokine was measured in bone marrow-derived macrophages (BMMs) from diseased mice to evaluate the potency of compounds of the invention as described herein. […] To derive bone marrow macrophages, marrow extracted from the femurs and tibias were harvested from Trex1-KO mice was cultured in growth media supplemented with macrophage colony-stimulating factor (M-CSF). Differentiated BMM were harvested and frozen for subsequent experimentation. For treatment with compound C1089 (see Example 13), a frozen stock of Trex1-KO BMM was thawed and 1×10^5 cells were plated in 96 well format. BMMs were treated with a dilution series of C1089 and incubated overnight at 37° C. 5% CO2, at which point cellular supernatants were harvested and stored at −80° C. for subsequent analysis. The media used for this dilution series was without FBS. Remaining cells were evaluated for viability using Cell Titer Glo 2.0 kit according to the manufacturer instructions. BMM supernatants were evaluated for the secreted cytokine […] (RANTES/CCL5) or for secreted cytokine monocyte chemoattractant protein 1 (MCP-1/CCL2) using cytometric bead array mouse Flex Set kits (BD Biosciences). Cytokine concentration was calculated from a standard curve and normalized to vehicle (DMSO) treated cells.

[3] = tested on: cGAS/STING pathway in THP1 cells; test: THP1 cell-based cGAS/STING pathway activity assay (IRF-3-linked luciferase reporter); conditions: Homo sapiens, THP-1
Outline: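 THP1 cells carrying an IRF-3-driven luciferase reporter were read across a range of compound concentrations, and IC50 values were derived from these concentration responses; the assay upper limit was 100 μM.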

Chain of Human cGAS amino acids 155-522 (Q8N884 157-522): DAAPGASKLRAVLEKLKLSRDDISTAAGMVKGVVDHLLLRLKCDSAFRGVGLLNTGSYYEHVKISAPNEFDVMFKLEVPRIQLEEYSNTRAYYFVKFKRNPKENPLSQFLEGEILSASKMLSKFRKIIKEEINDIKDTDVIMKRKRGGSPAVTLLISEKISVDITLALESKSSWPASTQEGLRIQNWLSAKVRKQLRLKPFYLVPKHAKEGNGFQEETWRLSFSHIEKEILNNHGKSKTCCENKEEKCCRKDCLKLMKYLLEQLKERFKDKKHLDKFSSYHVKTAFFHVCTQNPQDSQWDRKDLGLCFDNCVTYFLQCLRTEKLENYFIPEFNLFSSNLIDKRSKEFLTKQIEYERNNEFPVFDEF

Row | SMILES | IC50 [1] [µM] | BMM IC50 M (MCP-1) [2] | IC50 [3] [µM]
1 | Cc1[nH]c2c(-c3ccccc3)c(C(F)(F)F)nn2c(=O)c1-c1nc2cccc(N)c2[nH]1 [Compound C1008, 6-(7-amino-1H-benzo[d]imidazol-2-yl)-5-methyl-3-phenyl-2-(trifluoromethyl)pyrazolo[1,5-a]pyrimidin-7(4H)-one] | 20 to 250 | C | > 100
2 | Cc1[nH]c2c(-c3ccccc3)c(C(F)(F)F)nn2c(=O)c1C(=O)Nc1ccccc1NS(=O)(=O)c1ccccc1 [Compound A1059, 5-methyl-7-oxo-3-phenyl-N-(2-(phenylsulfonamido)phenyl)-2-(trifluoromethyl)-4,7-dihydropyrazolo[1,5-a]pyrimidine-6-carboxamide] | < 20 | C | < 20
3 | COCc1[nH]c2c(-c3ccccc3)c(C(F)(F)F)nn2c(=O)c1-c1nc2c(OC)cccc2o1 [Compound C1056, 6-(4-methoxybenzo[d]oxazol-2-yl)-5-(methoxymethyl)-3-phenyl-2-(trifluoromethyl)pyrazolo[1,5-a]pyrimidin-7(4H)-one] | < 20 | C | < 20
4 | COc1cccc2oc(-c3c(C)[nH]c4c(-c5ccccc5)c(C(F)(F)F)nn4c3=O)nc12 [Compound C1014, 6-(4-methoxybenzo[d]oxazol-2-yl)-5-methyl-3-phenyl-2-(trifluoromethyl)pyrazolo[1,5-a]pyrimidin-7(4H)-one] | < 20 | C | < 20
5 | COc1ccccc1NC(=O)c1c(C)[nH]c2c(C3CCCC3)c(C(F)(F)F)nn2c1=O [Compound A1052, 3-cyclopentyl-N-(2-methoxyphenyl)-5-methyl-7-oxo-2-(trifluoromethyl)-4,7-dihydropyrazolo[1,5-a]pyrimidine-6-carboxamide] | 20 to 250 | C | 
6 | Cc1[nH]c2c(-c3ccccc3)c(C#N)nn2c(=O)c1-c1nc2cccc(N)c2o1 [Compound C1230, 6-(7-aminobenzo[d]oxazol-2-yl)-5-methyl-7-oxo-3-phenyl-4,7-dihydropyrazolo[1,5-a]pyrimidine-2-carbonitrile] | < 20 |  | > 100
7 | COc1ccc(NC(=O)c2c(C)[nH]c3c(-c4ccccc4)c(C(F)(F)F)nn3c2=O)cn1 [Compound A1088, N-(6-methoxypyridin-3-yl)-5-methyl-7-oxo-3-phenyl-2-(trifluoromethyl)-4,7-dihydropyrazolo[1,5-a]pyrimidine-6-carboxamide] | 20 to 250 |  | 20 to 100
8 | COc1cccc2oc(-c3c(C(=O)O)[nH]c4c(-c5ccccc5)c(C(F)(F)F)nn4c3=O)nc12 [Compound C1131, 6-(4-methoxybenzo[d]oxazol-2-yl)-7-oxo-3-phenyl-2-(trifluoromethyl)-4,7-dihydropyrazolo[1,5-a]pyrimidine-5-carboxylic acid] | < 20 |  | > 100
9 | Cc1[nH]c2c(-c3ccccc3)c(C(F)(F)F)nn2c(=O)c1-c1nnc(C(C)(O)C(F)(F)F)o1 (stereo not drawn) [Compound D1008, 5-methyl-3-phenyl-6-(5-(1,1,1-trifluoro-2-hydroxypropan-2-yl)-1,3,4-oxadiazol-2-yl)-2-(trifluoromethyl)pyrazolo[1,5-a]pyrimidin-7(4H)-one] | 20 to 250 |  | > 100
10 | COc1cccc2oc(-c3c(CS(C)(=O)=O)[nH]c4c(-c5ccccc5)c(C(F)(F)F)nn4c3=O)nc12 [Compound C1138, 6-(4-methoxybenzo[d]oxazol-2-yl)-5-((methylsulfonyl)methyl)-3-phenyl-2-(trifluoromethyl)pyrazolo[1,5-a]pyrimidin-7(4H)-one] | < 20 |  | > 100
11 | Cc1[nH]c2c(-c3ccccc3)c(C(F)(F)F)nn2c(=O)c1-c1nc(C(=O)O)co1 [Compound C1165, 2-(5-methyl-7-oxo-3-phenyl-2-(trifluoromethyl)-4,7-dihydropyrazolo[1,5-a]pyrimidin-6-yl)oxazole-4-carboxylic acid] | < 20 |  | > 100
12 | CCOc1cccc2oc(-c3c(C)[nH]c4c(-c5ccccc5)c(C(F)(F)F)nn4c3=O)nc12 [Compound C1038, 6-(4-ethoxybenzo[d]oxazol-2-yl)-5-methyl-3-phenyl-2-(trifluoromethyl)pyrazolo[1,5-a]pyrimidin-7(4H)-one] | < 20 |  | < 20
13 | COc1ccc(S(C)(=O)=O)c2oc(-c3c(C)[nH]c4c(-c5ccccc5)c(C(F)(F)F)nn4c3=O)nc12 [Compound C1125, 6-(4-methoxy-7-(methylsulfonyl)benzo[d]oxazol-2-yl)-5-methyl-3-phenyl-2-(trifluoromethyl)pyrazolo[1,5-a]pyrimidin-7(4H)-one] | < 20 |  | 20 to 100
14 | Cc1[nH]c2c(-c3ccccc3)c(C(F)(F)F)nn2c(=O)c1C(=O)NS(=O)(=O)c1ccccc1 [Compound A1116, 5-methyl-7-oxo-3-phenyl-N-(phenylsulfonyl)-2-(trifluoromethyl)-4,7-dihydropyrazolo[1,5-a]pyrimidine-6-carboxamide] | < 20 |  | 20 to 100
15 | COc1cccc2oc(-c3c(C4CC(C(=O)O)C4)[nH]c4c(-c5ccccc5)c(C(F)(F)F)nn4c3=O)nc12 (stereo not drawn) [Compound C1252, 3-(6-(4-methoxybenzo[d]oxazol-2-yl)-7-oxo-3-phenyl-2-(trifluoromethyl)-4,7-dihydropyrazolo[1,5-a]pyrimidin-5-yl)cyclobutane-1-carboxylic acid] | < 20 |  | > 100
16 | Cc1[nH]c2c(-c3ccccc3)c(C(F)(F)F)nn2c(=O)c1C(=O)Nc1ccccc1 [Compound A1002, 5-methyl-7-oxo-N,3-diphenyl-2-(trifluoromethyl)-4,7-dihydropyrazolo[1,5-a]pyrimidine-6-carboxamide] | < 20 |  | 20 to 100
17 | COCc1ccccc1NC(=O)c1c(C)[nH]c2c(-c3ccccc3)c(C(F)(F)F)nn2c1=O [Compound A1072, N-(2-(methoxymethyl)phenyl)-5-methyl-7-oxo-3-phenyl-2-(trifluoromethyl)-4,7-dihydropyrazolo[1,5-a]pyrimidine-6-carboxamide] | 20 to 250 |  | 20 to 100
18 | COC1CCCN(c2nnc(-c3c(C)[nH]c4c(-c5ccccc5)c(C(F)(F)F)nn4c3=O)o2)C1 (stereo not drawn) [Compound D1027, 6-(5-(3-methoxypiperidin-1-yl)-1,3,4-oxadiazol-2-yl)-5-methyl-3-phenyl-2-(trifluoromethyl)pyrazolo[1,5-a]pyrimidin-7(4H)-one] | < 20 |  | > 100
19 | COc1ccnc2oc(-c3c(C)[nH]c4c(-c5ccccc5)c(C(F)(F)F)nn4c3=O)nc12 [Compound C1058, 6-(7-methoxyoxazolo[5,4-b]pyridin-2-yl)-5-methyl-3-phenyl-2-(trifluoromethyl)pyrazolo[1,5-a]pyrimidin-7(4H)-one] | < 20 |  | > 100
20 | Cc1[nH]c2c(-c3ccccc3)c(C(F)(F)F)nn2c(=O)c1C1=NC(C(=O)O)[C@H](C)O1 (stereo partly drawn) [Compound C1216, (5S)-5-methyl-2-(5-methyl-7-oxo-3-phenyl-2-(trifluoromethyl)-4,7-dihydropyrazolo[1,5-a]pyrimidin-6-yl)-4,5-dihydrooxazole-4-carboxylic acid] | < 20 |  | > 100
21 | COCc1[nH]c2c(-c3ccccc3)c(C(F)(F)F)nn2c(=O)c1-c1ncc(C2CCCC2)o1 [Compound C1013, 6-(5-cyclopentyloxazol-2-yl)-5-(methoxymethyl)-3-phenyl-2-(trifluoromethyl)pyrazolo[1,5-a]pyrimidin-7(4H)-one] | > 250 |  | < 20
22 | COc1cccc2[nH]c(-c3c(C)[nH]c4c(-c5ccccc5)c(C(F)(F)F)nn4c3=O)nc12 [Compound C1018, 6-(4-methoxy-1H-benzo[d]imidazol-2-yl)-5-methyl-3-phenyl-2-(trifluoromethyl)pyrazolo[1,5-a]pyrimidin-7(4H)-one] | < 20 |  | > 100
23 | Cc1[nH]c2c(-c3ccccc3)c(C(F)(F)F)nn2c(=O)c1-c1nnc(C2COCCN2S(C)(=O)=O)o1 (stereo not drawn) [Compound D1047, 5-methyl-6-(5-(4-(methylsulfonyl)morpholin-3-yl)-1,3,4-oxadiazol-2-yl)-3-phenyl-2-(trifluoromethyl)pyrazolo[1,5-a]pyrimidin-7(4H)-one] | < 20 |  | > 100
24 | Cc1[nH]c2c(-c3ccccc3)c(C(F)(F)F)nn2c(=O)c1-c1nc2c(F)cccc2o1 [Compound C1076, 6-(4-fluorobenzo[d]oxazol-2-yl)-5-methyl-3-phenyl-2-(trifluoromethyl)pyrazolo[1,5-a]pyrimidin-7(4H)-one] | < 20 |  | < 20
25 | COc1nccc2oc(-c3c(C)[nH]c4c(-c5ccccc5)c(C(F)(F)F)nn4c3=O)nc12 [Compound C1037, 6-(4-methoxyoxazolo[4,5-c]pyridin-2-yl)-5-methyl-3-phenyl-2-(trifluoromethyl)pyrazolo[1,5-a]pyrimidin-7(4H)-one] | < 20 |  | < 20
